Measured values from ChEMBL document CHEMBL6096717, “Novel 3-Pyrrolidineindole Derivatives as Serotonergic Psychedelic Agents for Treating Psychosis and Mental Illnesses Such as Depression and Post-Traumatic Stress Disorder” (ACS Med Chem Lett, 2025).

Biological target: 5-hydroxytryptamine receptor 2A (Homo sapiens, UniProt P28223)
Assay: Displacement of [3H]-ketanserin from human 5HT2A receptor incubated for 90 mins by Microbeta2 scintillation counting analysis

5-hydroxytryptamine receptor 2A, sequence (P28223 whole entry): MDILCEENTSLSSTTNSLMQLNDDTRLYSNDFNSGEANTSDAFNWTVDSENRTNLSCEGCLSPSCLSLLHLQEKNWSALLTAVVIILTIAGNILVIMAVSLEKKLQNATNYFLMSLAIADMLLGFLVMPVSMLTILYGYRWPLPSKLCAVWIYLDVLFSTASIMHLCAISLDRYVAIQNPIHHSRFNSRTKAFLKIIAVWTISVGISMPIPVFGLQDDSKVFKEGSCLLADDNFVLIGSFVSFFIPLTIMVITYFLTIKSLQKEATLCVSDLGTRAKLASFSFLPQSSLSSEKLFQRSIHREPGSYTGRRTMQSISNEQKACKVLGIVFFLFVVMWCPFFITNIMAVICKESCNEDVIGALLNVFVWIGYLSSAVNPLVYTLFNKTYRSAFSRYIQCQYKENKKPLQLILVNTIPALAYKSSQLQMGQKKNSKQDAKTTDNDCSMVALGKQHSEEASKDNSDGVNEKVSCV

Compound	IC50
[2H]C([2H])(c1c[nH]c2cccc(OC(=O)CCCCCCC/C=C\C/C=C\CCCC)c12)[C@H]1CCCN1C([2H])([2H])[2H]	< 500 nM
[2H]C([2H])([2H])N1CCC[C@@H]1Cc1c[nH]c2cccc(OC(=O)CCCCCCC/C=C\C/C=C\CCCC)c12	< 500 nM
[2H]C([2H])([2H])N1CCC[C@@H]1Cc1c[nH]c2cccc(O)c12	< 500 nM
[2H]C([2H])([2H])N1CCC[C@@H]1Cc1c[nH]c2cccc(F)c12	< 500 nM
[2H]C([2H])(c1c[nH]c2cccc(O)c12)[C@H]1CCCN1C([2H])([2H])[2H]	< 500 nM
[2H]C([2H])(c1c[nH]c2cccc(Cl)c12)[C@H]1CCCN1C([2H])([2H])[2H]	< 500 nM
